Source: patent US20180153995A1, “USE OF ANTIMICROBIAL POLYMERS FOR RE-SENSITIZATION OF MICROORGANISMS UPON EMERGENCE OF RESISTANCE TO ANTI-MICROBIAL AGENTS” (Technion Research & Development Foundation Limited, priority 2008, published 2018)
Values joined by “and” are separate entries in the source; they are usually repeats but may differ in a detail not shown here. Identical values can stand only once. Like-named read-outs stand apart in the source and are kept apart here.

What was measured:
[1] = tested on: E. coli K-12 resistant wild type; assay type: cell-based, Escherichia coli; conditions: E. coli AG100 (w.t.)
S. aureus 15877 = assay: Antibiotic MIC by microdilution with or without sub-MIC polymer; assay type: cell-based, Staphylococcus aureus
Protocol: MICs were determined by microdilution susceptibility testing in 96-well plates (Nunc) using inocula of 10^5 bacteria per ml. One hundred (100) μl of a bacterial suspension were added to 100 μl of culture medium (control) or to 100 μl of culture medium containing various antibiotic and C12(5-ene)KKNC12KNH2 (SEQ ID NO: 2) concentrations in 2-fold serial dilutions. Inhibition of proliferation was determined by optical density measurements at 620 nm after an incubation period of 24 hours at 37° C.

MRSA 15852 = assay type: cell-based, Staphylococcus aureus; conditions: S. aureus 15852
Protocol: The fractionary inhibitory (FIC) concentration index for combinations of two antimicrobial agents was calculated as follows: FIC index=FICA+FICB=A/MICA+B/MICB where A and B are the MIC values of agent A and agent B in the combination, MICA and MICB are the MICs of agent A and agent B alone, and FICA and FICB are the FICs of agent A and agent B.
The FIC indexes were interpreted as follows: less than 0.5 indicates a clear re-sensitizing effect; from 0.5 to 4 indicates a marginal or null re-sensitizing effect; and over 4 indicates antagonism.

E. coli AG100/ks = assay: Antibiotic MIC with or without sub-MIC polymer (Tables 20, 21); assay type: cell-based, Escherichia coli
P. aeruginosa 8732 = assay: Antibiotic MIC by microdilution with or without sub-MIC polymer; assay type: cell-based, Pseudomonas aeruginosa
Protocol: (§1) MICs were determined by microdilution susceptibility testing in 96-well plates (by Nunc) using inocula of 10^5 bacteria per ml. Cell populations were evaluated by optical density measurements at 620 nm and were calibrated against a set of standards. Hundred (100) μl of a bacterial suspension were added to 100 μl of culture medium (control) or to 100 μl of culture medium containing various polymer concentrations in 2-fold serial dilutions. Inhibition of proliferation was determined by optical density measurements at 620 nm after an incubation period of 24 hours at 37° C.
Inhibition of proliferation was determined by optical density measurements at 620 nm after an incubation period of 24 hours at 37° C.

E. coli AG100 = assay: Antibiotic MIC with or without sub-MIC polymer (Tables 20, 21); assay type: cell-based, Escherichia coli
E. coli 16329 = assay type: cell-based, Escherichia coli
Protocol: as §1
(§2) 100 μl of a bacterial suspension were added to 100 μl of culture medium (control) or to 100 μl of culture medium containing various antibiotic and C14(9-ene)KKNC12KNH2 (SEQ ID NO: 5) concentrations in 2-fold serial dilutions. Inhibition of proliferation was determined by optical density measurements at 620 nm after an incubation period of 24 hours at 37° C.

E. coli 14384 = assay: Antibiotic MIC by microdilution with or without sub-MIC polymer; assay type: cell-based, Escherichia coli
Protocol: as §1, §2

P. mirabilis 1285 [2] = assay type: cell-based, Proteus mirabilis
P. mirabilis 1285 [3] = assay type: cell-based, Proteus mirabilis; conditions: no polymer (None), Table 12
Protocol: as §1, §2

[4] = +¼ MIC (1.6 μM) C12(5-ene)KKNC12KNH2
[5] = +½ MIC (3.12 μM) C12(5-ene)KKNC12KNH2
[6] = +⅓ MIC (2.1 μM) C12(5-ene)KKNC12KNH2

CCN1CCN(C(=O)N[C@@H](C(=O)N[C@@H]2C(=O)N3[C@@H]2SC(C)(C)[C@@H]3C(=O)O)c2ccccc2)C(=O)C1=O [Piperacillin, piperacillin]
Antibiotic MIC, None ([1]; antibiotic alone (Table 16)): 2 µg/mL | Antibiotic MIC, None ([1]; antibiotic alone (Table 17)): 2 µg/mL | Antibiotic MIC in presence of C12K(NC8K)7NH2 (SEQ ID NO: 4), +¼ MIC ([1]; polymer at ¼ of its MIC (Table 16)): 2 µg/mL | Antibiotic MIC in presence of C12K(NC8K)7NH2 (SEQ ID NO: 4), +½ MIC ([1]; polymer at ½ of its MIC (Table 16)): 0.5 µg/mL | Antibiotic MIC in presence of C12K(NC8K)7NH2 (SEQ ID NO: 4), +⅓ MIC ([1]; polymer at ⅓ of its MIC (Table 16)): 1 µg/mL | Antibiotic MIC in presence of the OAK, +¼ MIC ([1]; the OAK at ¼ of its MIC (Table 17)): 1 to 2 µg/mL | Antibiotic MIC in presence of the OAK, +½ MIC ([1]; the OAK at ½ of its MIC (Table 17)): 0.5 µg/mL | Antibiotic MIC in presence of the OAK, +⅓ MIC ([1]; the OAK at ⅓ of its MIC (Table 17)): 1 µg/mL | Antibiotic MIC (S. aureus 15877; [4]): 16 to 32 µg/mL | Antibiotic MIC (S. aureus 15877; [5]): 8 to 16 µg/mL | Antibiotic MIC (S. aureus 15877; [6]): 16 to 32 µg/mL | Antibiotic MIC (S. aureus 15877; no polymer (None), Table 8): 16 to 32 µg/mL | Antibiotic MIC (MRSA 15852; [4]): 128 µg/mL | Antibiotic MIC (MRSA 15852; +¼ MIC (1.6 μM) C12KKNC12KNH2): 256 µg/mL | Antibiotic MIC (MRSA 15852; [5]): 128 µg/mL | Antibiotic MIC (MRSA 15852; +½ MIC (3.12 μM) C12KKNC12KNH2): 256 µg/mL | Antibiotic MIC (MRSA 15852; [6]): 128 µg/mL | Antibiotic MIC (MRSA 15852; +⅓ MIC (2.1 μM) C12KKNC12KNH2): 256 µg/mL | Antibiotic MIC (MRSA 15852; no polymer (None), Table 8): 128 µg/mL | Antibiotic MIC (MRSA 15852; no polymer (None), Table 11): 256 µg/mL | Antibiotic MIC, None (E. coli AG100/ks; antibiotic alone (Table 20)): >512 µg/mL | Antibiotic MIC, None (E. coli AG100/ks; antibiotic alone (Table 21)): >512 µg/mL | Antibiotic MIC in presence of C12K(NC8K)5NH2 (SEQ ID NO: 3), +¼ MIC (E. coli AG100/ks; polymer at ¼ of its MIC): >512 µg/mL | Antibiotic MIC in presence of C12K(NC8K)7NH2 (SEQ ID NO: 4), +¼ MIC (E. coli AG100/ks; polymer at ¼ of its MIC): >512 µg/mL | Antibiotic MIC in presence of C12K(NC8K)5NH2 (SEQ ID NO: 3), +½ MIC (E. coli AG100/ks; polymer at ½ of its MIC): >512-512 μg/ml | Antibiotic MIC in presence of C12K(NC8K)7NH2 (SEQ ID NO: 4), +½ MIC (E. coli AG100/ks; polymer at ½ of its MIC): >512-512 μg/ml | Antibiotic MIC in presence of C12K(NC8K)5NH2 (SEQ ID NO: 3), +⅓ MIC (E. coli AG100/ks; polymer at ⅓ of its MIC): >512 µg/mL | Antibiotic MIC in presence of C12K(NC8K)7NH2 (SEQ ID NO: 4), +⅓ MIC (E. coli AG100/ks; polymer at ⅓ of its MIC): >512 µg/mL | Antibiotic MIC (P. aeruginosa 8732): 256 µg/mL | Antibiotic MIC (P. aeruginosa 8732; P. aeruginosa 8732, +½ MIC (3.12 μM) C16(9-ene)KKNC12KNH2): 256 µg/mL | Antibiotic MIC (P. aeruginosa 8732; P. aeruginosa 8732, +⅓ MIC (2.1 μM) C16(9-ene)KKNC12KNH2): 256 µg/mL | Antibiotic MIC (P. aeruginosa 8732; P. aeruginosa 8732, no polymer (None), Table 10): 256 µg/mL | Antibiotic MIC, None (E. coli AG100; antibiotic alone (Table 20)): 2 µg/mL | Antibiotic MIC, None (E. coli AG100; antibiotic alone (Table 21)): 2 µg/mL | Antibiotic MIC in presence of C12K(NC8K)5NH2 (SEQ ID NO: 3), +¼ MIC (E. coli AG100; polymer at ¼ of its MIC): 1 to 2 µg/mL | Antibiotic MIC in presence of C12K(NC8K)7NH2 (SEQ ID NO: 4), +¼ MIC (E. coli AG100; polymer at ¼ of its MIC): 2 µg/mL | Antibiotic MIC in presence of C12K(NC8K)5NH2 (SEQ ID NO: 3), +½ MIC (E. coli AG100; polymer at ½ of its MIC): 0.5 µg/mL | Antibiotic MIC in presence of C12K(NC8K)7NH2 (SEQ ID NO: 4), +½ MIC (E. coli AG100; polymer at ½ of its MIC): 0.5 µg/mL | Antibiotic MIC in presence of C12K(NC8K)5NH2 (SEQ ID NO: 3), +⅓ MIC (E. coli AG100; polymer at ⅓ of its MIC): 1 µg/mL | Antibiotic MIC in presence of C12K(NC8K)7NH2 (SEQ ID NO: 4), +⅓ MIC (E. coli AG100; polymer at ⅓ of its MIC): 1 µg/mL | Antibiotic MIC (E. coli 16329): 128 to 256 µg/mL | Antibiotic MIC (E. coli 16329; E. coli 16329, no polymer (None), Table 10): 256 µg/mL | Antibiotic MIC (E. coli 16329; E. coli U-16329, +¼ MIC C12K(NC8K)5NH2): 256 µg/mL | Antibiotic MIC (E. coli 16329; E. coli U-16329, +½ MIC C12K(NC8K)5NH2): 128 µg/mL | Antibiotic MIC (E. coli 16329; E. coli U-16329, +⅓ MIC C12K(NC8K)5NH2): 128 to 256 µg/mL | Antibiotic MIC, None (E. coli 16329; E. coli U-16329, antibiotic alone (Table 15)): 256 µg/mL | Antibiotic MIC (E. coli 16329; E. coli U-16329, no polymer (None), Table 14): 256 µg/mL | Antibiotic MIC in presence of C12K(NC8K)7NH2 (SEQ ID NO: 4), +¼ MIC (E. coli 16329; E. coli U-16329, polymer at ¼ of its MIC): 128 to 256 µg/mL | Antibiotic MIC in presence of C12K(NC8K)7NH2 (SEQ ID NO: 4), +½ MIC (E. coli 16329; E. coli U-16329, polymer at ½ of its MIC): 64 to 128 µg/mL | Antibiotic MIC in presence of C12K(NC8K)7NH2 (SEQ ID NO: 4), +⅓ MIC (E. coli 16329; E. coli U-16329, polymer at ⅓ of its MIC): 128 to 256 µg/mL | Antibiotic MIC (E. coli 14384): 256 µg/mL and 256 to 512 µg/mL | Antibiotic MIC (E. coli 14384; E. coli 14384, +½ MIC C12K(NC8K)5NH2): 256 to 512 µg/mL | Antibiotic MIC, None (E. coli 14384; E. coli 14384, antibiotic alone (Table 15)): 256 to 512 µg/mL | Antibiotic MIC (E. coli 14384; E. coli 14384, no polymer (None), Table 9): 256 to 512 µg/mL | Antibiotic MIC (E. coli 14384; E. coli 14384, no polymer (None), Table 14): 256 to 512 µg/mL | Antibiotic MIC in presence of C12K(NC8K)7NH2 (SEQ ID NO: 4), +¼ MIC (E. coli 14384; E. coli 14384, polymer at ¼ of its MIC): 256 to 512 µg/mL | Antibiotic MIC in presence of C12K(NC8K)7NH2 (SEQ ID NO: 4), +½ MIC (E. coli 14384; E. coli 14384, polymer at ½ of its MIC): 64 to 128 µg/mL | Antibiotic MIC in presence of C12K(NC8K)7NH2 (SEQ ID NO: 4), +⅓ MIC (E. coli 14384; E. coli 14384, polymer at ⅓ of its MIC): 256 to 512 µg/mL | Antibiotic MIC (P. mirabilis 1285 [2]; +¼ MIC (1.6 μM) C12K(KNC12K)2NH2): 512 µg/mL | Antibiotic MIC (P. mirabilis 1285 [2]; +½ MIC (3.12 μM) C12K(KNC12K)2NH2): 512 µg/mL | Antibiotic MIC (P. mirabilis 1285 [2]; +⅓ MIC (2.1 μM) C12K(KNC12K)2NH2): 512 µg/mL | Antibiotic MIC (P. mirabilis 1285 [3]): 512 µg/mL
